Patent publication US20110275517A1, “SYNERGISTIC HERBICIDAL COMPOSITION CONTAINING A DICAMBA DERIVATIVE AND A […]” (DOW AGROSCIENCES LLC, priority 2010, published 2011)

Columns and labels:
Format in all cases: in vivo
Conditions in all cases: rated after 14-21 d
[1] = tested on: ERICA = Conyza canadensis (horseweed/marestail); assay: Greenhouse postemergence foliar herbicidal test on ERICA
Experimental: (§1) Seeds of the desired test plant species were planted in Sun Gro MetroMix 306 planting mixture, which typically has a pH of 6.0 to 6.8 and an organic matter content of about 30 percent, in plastic pots with a surface area of 103.2 square centimeters (cm^2). […] The plants were grown for 7-36 days (d) in a greenhouse with an approximate 16 hour (h) photoperiod which was maintained at about 28° C. during the day and 26° C. during the night. Nutrients and water were added on a regular basis and supplemental lighting was provided with overhead metal halide 1000-Watt lamps as necessary. The plants were employed for testing when they reached the second or third true leaf stage.
(§2) Treatments consisted of Banvel™ (dicamba dimethylamine salt) and Durango™ herbicide (glyphosate dimethylamine salt) alone and in combinations. An aliquot of
(§3) Banvel^TM (dicamba dimethylamine salt) was placed in 25 milliliter (mL) glass vials and diluted in a volume of water to obtain 1.5 milligrams (mg) active ingredient (ai)/mL concentrated solutions. Subsequent concentrations of Banvel™ (dicamba dimethylamine salt) were obtained by dilution with an equal volume of water. Spray solutions of Durango™ herbicide (glyphosate dimethylamine salt) were prepared following the aforementioned procedure. An aliquot of Durango™ herbicide (glyphosate dimethylamine salt) was placed in 25 milliter (mL) glass vials and mixed in a volume of 100:2 w/w water/ammonium sulfate (AMS) dilution solution to obtain 1.5 milligrams (mg) active ingredient (ai)/mL concentrated solutions.
(§4) Compound requirements are based upon a 12 mL application volume at a rate of 187 liters per hectare (L/ha). Spray solutions of the Banvel^TM (dicamba dimethylamine salt) and Durango™ herbicide (glyphosate dimethylamine salt) were prepared by adding the concentrated solutions to the appropriate amount of dilution solution to form 12 mL spray solution with active ingredients in combination. Banvel™ (dicamba dimethylamine salt) and Durango™ herbicide (glyphosate dimethylamine salt) alone and in combinations were applied to the foliage of plant material with an overhead Mandel track sprayer equipped with 8002E nozzles calibrated to deliver 187 L/ha over an application area of 0.503 square meters (m^2) at a spray height of 18 inches (43 cm) above average plant canopy. Control plants were sprayed in the same manner with the solvent blank.
(§5) The treated plants and control plants were placed in a greenhouse as described above and watered by sub-irrigation to prevent wash-off of the test compounds. After 14-21 d, the condition of the test plants as compared with that of the control plants was determined visually and scored on a scale of 0 to 100 percent where 0 corresponds to no injury and 100 corresponds to complete kill.
(§6) Colby's equation was used to determine the herbicidal effects expected from the mixtures (Colby, S. R. 1967. Calculation of the synergistic and antagonistic response of herbicide combinations. Weeds 15:20-22.).
(§7) The following equation was used to calculate the expected activity of mixtures containing two active ingredients, A and B:
(§8) A=observed efficacy of active ingredient A at the same concentration as used in the mixture;
(§9) B=observed efficacy of active ingredient B at the same concentration as used in the mixture.

[2] = tested on: CHEAL = Chenopodium album (Common lambsquarters/fat hen); assay: Greenhouse postemergence foliar herbicidal test on CHEAL
Experimental: as §1, §2, §3, §4, §5, §6, §7, §8, §9

[3] = tested on: COMBE = Commelina benghalensis (Dayflower); assay: Greenhouse postemergence foliar herbicidal test on COMBE
Experimental: as §1, §2, §3, §4, §5, §6, §7, §8, §9

[4] = tested on: ERICA GLY-RES (Glyphosate-resistant Conyza canadensis); assay: Greenhouse postemergence foliar herbicidal test on ERICA GLY-RES
Experimental: as §1, §2, §3, §4, §5, §6, §7, §8, §9

[5] = tested on: CHEAL GLY-RES (Glyphosate-resistant Chenopodium album); assay: Greenhouse postemergence foliar herbicidal test on CHEAL GLY-RES
Experimental: as §1, §2, §3, §4, §5, §6, §7, §8, §9

Row | SMILES | Herbicidal effect, observed (Ob), visual injury 0-100 ([1]; applied alone at 35 g/ha) | Herbicidal effect, observed (Ob), visual injury 0-100 ([1]; applied alone at 70 g/ha) | Herbicidal effect, observed (Ob), visual injury 0-100 ([1]; applied alone at 140 g/ha) | Herbicidal effect, observed (Ob), visual injury 0-100 ([1]; applied alone at 280 g/ha) | Herbicidal effect, observed (Ob), visual injury 0-100 ([2]; applied alone at 35 g/ha) | Herbicidal effect, observed (Ob), visual injury 0-100 ([2]; applied alone at 70 g/ha) | Herbicidal effect, observed (Ob), visual injury 0-100 ([2]; applied alone at 140 g/ha) | Herbicidal effect, observed (Ob), visual injury 0-100 ([2]; applied alone at 280 g/ha) | Herbicidal effect, observed (Ob), visual injury 0-100 ([3]; applied alone at 35 g/ha) | Herbicidal effect, observed (Ob), visual injury 0-100 ([3]; applied alone at 70 g/ha) | Herbicidal effect, observed (Ob), visual injury 0-100 ([3]; applied alone at 140 g/ha) | Herbicidal effect, observed (Ob), visual injury 0-100 ([3]; applied alone at 280 g/ha) | Herbicidal effect, observed (Ob), visual injury 0-100 ([4]; applied alone at 35 g/ha) | Herbicidal effect, observed (Ob), visual injury 0-100 ([4]; applied alone at 70 g/ha) | Herbicidal effect, observed (Ob), visual injury 0-100 ([4]; applied alone at 140 g/ha) | Herbicidal effect, observed (Ob), visual injury 0-100 ([4]; applied alone at 280 g/ha) | Herbicidal effect, observed (Ob), visual injury 0-100 ([5]; applied alone at 35 g/ha) | Herbicidal effect, observed (Ob), visual injury 0-100 ([5]; applied alone at 70 g/ha) | Herbicidal effect, observed (Ob), visual injury 0-100 ([5]; applied alone at 140 g/ha) | Herbicidal effect, observed (Ob), visual injury 0-100 ([5]; applied alone at 280 g/ha)
1 | COc1c(Cl)ccc(Cl)c1C(=O)O [Dicamba, 3,6-dichloro-2-methoxybenzoic acid] | 62% | 81% | 93% | 97% | 34% | 40% | 52% | 61% | 18% | 25% | 43% | 42% | 62% | 83% | 95% | 97% | 33% | 48% | 64% | 83%
2 | O=C(O)CNCP(=O)(O)O [Glyphosate + AMS, N-(phosphonomethyl)glycine] | 47% | 55% | 72% | 78% | 8% | 12% | 57% | 66% | 7% | 27% | 49% | 58% | 0% | 0% | 3% | 7% | 9% | 9% | 41% | 51%
